In patent publication US20230165906A1, “COMPOSITIONS AND METHODS FOR USING TRANSPLANTED MICROGLIA AS A VEHICLE FOR WIDESPREAD DELIVERY OF CELLS AND OTHER BIOLOGIC AGENTS TO THE BRAIN” (Albert Einstein College of Medicine, priority 2020, published 2023):

Legend:
[1] = tested on: host microglia; assay: Pharmacological ablation of host microglia in vivo (Iba1 staining); settings: PLX5622 given to mice via chow for 7 days prior to transplantation
Description: For pharmacological ablation of host microglia, PLX5622 (Plexxikon Inc.), a drug that inhibits CSF1R, was given to the mice via chow for 7 days prior to transplantation. This treatment kills approximately 90% of host microglia (FIG. 3). PLX5622 is a blood-brain-barrier permeable drug in clinical trials. Two days before transplantation, PLX5622 treatment was stopped to avoid potentially killing donor cells. […]. Thus, with daily injection of tamoxifen, donor microglia outcompete host microglia for repopulation.

[2] = tested on: cultured human primary microglia; assay: Screening of human microglia for resistance to PLX5622-induced cell death; assay type: cell-based; settings: for resistance to PLX5622-mediated cell ablation: mutant CSF1R expressed in cultured human primary microglia via retrovirus infection
Description: (§1) FIGS. 5A-I show screening of human and mouse microglia for resistance to PLX5622. Human microglia (5A) are normally susceptible to CSF1R antagonist PLX5622-induced cell death (5B). […] Similarly, mouse microglia (5G) are normally susceptible to CSF1R antagonist-induced cell death (5H).
Although dispersion of mouse microglia was achieved using the protocol described in Example 2, continued genetic ablation of host microglia after transplantation of donor microglia cannot likely be used in a clinical setting. Therefore, to achieve dispersion of microglia independent of any genetic manipulations, a novel method to make microglia resistant to ablation by a CSF1R inhibitor such as PLX5622 was developed. Based on the mechanism of action of PLX5622 (antagonizing the critical CSF1R receptor), mutant forms of CSF1R that are constitutively active and potentially convey resistance to PLX5622 were screened (FIG. 5). […] Mutant CSF1Rs were expressed in human donor microglia via retrovirus infection. Such PLX5622-resistant microglia can then be transplanted to hosts in which endogenous microglia are continuously being depleted pharmacologically with PLX5622 post transplantation to allow donor microglia to outcompete residual endogenous microglia for repopulation. We are currently testing resistance of microglia expressing CSFIR^L301S and others to PLX5622 ablation in vivo.

[3] = tested on: mouse microglia; assay: Screening of mouse microglia for resistance to PLX5622-induced cell death; assay type: cell-based; settings: no mutant CSF1R
Description: as §1

Row | Molecule | host microglia killed [1] | susceptibility to CSF1R antagonist PLX5622-induced cell death ([2]; human microglia, no mutant CSF1R) | susceptibility to CSF1R antagonist-induced cell death [3] | resistance to PLX5622-mediated cell ablation [2]
1 | COc1ncc(F)cc1CNc1ccc(Cc2c[nH]c3ncc(C)cc23)c(F)n1 [PLX5622, 6-fluoro-N-[(5-fluoro-2-methoxypyridin-3-yl)methyl]-5-[(5-methyl-1H-pyrrolo[2,3-b]pyridin-3-yl)methyl]pyridin-2-amine] | approximately 90% | susceptible | susceptible | –
2 | CSR1R^Y969F: constitutively active gain-of-function mutant CSF1R expressed in donor microglia | – | – | – | high resistance
3 | CSF1R^L301S: constitutively active gain-of-function mutant CSF1R expressed in donor microglia | – | – | – | high resistance
4 | CSR1R^Y571D: constitutively active gain-of-function mutant CSF1R expressed in donor microglia | – | – | – | high resistance
